Sander's compilation of Henry's law constants (doi:10.1021/je700612b)

test: Henry solubility constant Hcp at 298.15 K (mol/(m3 Pa)); conditions: reference: Ji et al. (2008)

Compound	Henry solubility constant Hcp
COc1ccc(C=O)cc1 [4-methoxybenzaldehyde]	24
Cc1ccccc1C=O [2-methylbenzaldehyde]	0.31
COc1ccccc1C=O [2-methoxybenzaldehyde]	10
COc1cccc(C=O)c1 [3-methoxybenzaldehyde]	5.1
Cc1cccc(C=O)c1 [3-methylbenzaldehyde]	0.35
CCC(=O)c1ccccc1 [phenyl ethyl ketone]	0.99

Second part, the compound after the results:

Henry solubility constant Hcp	Compound
19	COc1cccc(C(C)=O)c1 [3′-methoxyacetophenone]
1	CC(=O)c1ccccc1O [2′-hydroxyacetophenone]
1.5	CC(=O)c1cccc(C)c1 [3′-methylacetophenone]
1.2	CC(=O)c1ccccc1 [1-phenylethanone]
0.76	CC(=O)c1ccccc1C [2′-methylacetophenone]
1.8	CC(=O)c1ccc(C)cc1 [4'-methylacetophenone]
17	COc1ccccc1C(C)=O [2′-methoxyacetophenone]
